Results published in paper PMC5216742, “Discovery and characterization of a novel potent type II native and mutant BCR-ABL inhibitor (CHMFL-074) for Chronic Myeloid Leukemia (CML)” (Oncotarget, 2016).
Entries after “also recorded” stand apart in the source; their conditions may differ.

What was measured:
[1] = molecular target: T1, ABL1(H396P)-nonphosphorylated (Homo sapiens, UniProt P00519, H396P); test: KinomeScan profiling; assay type: binding; details: 1 µM CHMFL-074; read-out: % Control
T1 construct: purchased DiscoveRx (KinomeScan service)

[2] = molecular target: T2, ABL1(H396P)-phosphorylated (Homo sapiens, UniProt P00519, H396P); test: KinomeScan profiling; assay type: binding; details: 1 µM CHMFL-074; read-out: % Control
T2 construct: purchased DiscoveRx (KinomeScan service)

[3] = molecular target: T3, ABL1(Q252H)-phosphorylated (Homo sapiens, UniProt P00519, Q252H); test: KinomeScan profiling; assay type: binding; details: 1 µM CHMFL-074; read-out: % Control
T3 construct: purchased DiscoveRx (KinomeScan service)

[4] = molecular target: T4, c-KIT (Homo sapiens, UniProt P10721); test: Invitrogen Z'LYTE biochemical kinase assay
T4 construct: made in house
T4 sequence (P10721 26-976): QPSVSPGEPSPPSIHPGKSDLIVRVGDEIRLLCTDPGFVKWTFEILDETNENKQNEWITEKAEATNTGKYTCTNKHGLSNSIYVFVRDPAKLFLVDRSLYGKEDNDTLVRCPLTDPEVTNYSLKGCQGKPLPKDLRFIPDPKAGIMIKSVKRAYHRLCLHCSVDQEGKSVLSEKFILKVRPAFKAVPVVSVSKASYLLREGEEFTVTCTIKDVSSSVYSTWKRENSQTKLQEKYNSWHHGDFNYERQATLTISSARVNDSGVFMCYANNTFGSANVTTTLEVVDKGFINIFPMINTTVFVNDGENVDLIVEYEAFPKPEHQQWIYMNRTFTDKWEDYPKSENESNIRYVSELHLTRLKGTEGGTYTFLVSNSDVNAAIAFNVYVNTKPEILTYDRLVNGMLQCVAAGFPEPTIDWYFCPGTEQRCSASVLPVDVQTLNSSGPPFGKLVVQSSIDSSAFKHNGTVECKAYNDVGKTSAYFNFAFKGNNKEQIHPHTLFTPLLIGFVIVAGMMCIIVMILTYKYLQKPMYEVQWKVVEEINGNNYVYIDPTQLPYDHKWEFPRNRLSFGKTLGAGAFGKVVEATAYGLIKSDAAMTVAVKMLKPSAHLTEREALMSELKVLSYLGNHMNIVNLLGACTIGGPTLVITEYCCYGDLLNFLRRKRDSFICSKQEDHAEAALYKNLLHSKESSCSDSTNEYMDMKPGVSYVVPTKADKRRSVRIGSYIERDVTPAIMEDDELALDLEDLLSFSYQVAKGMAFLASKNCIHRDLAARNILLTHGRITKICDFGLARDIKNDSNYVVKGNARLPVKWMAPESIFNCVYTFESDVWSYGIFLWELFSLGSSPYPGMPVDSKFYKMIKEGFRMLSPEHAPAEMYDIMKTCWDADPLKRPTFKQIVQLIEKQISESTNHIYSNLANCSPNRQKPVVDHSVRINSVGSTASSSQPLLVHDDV
Description: The fluorescence resonance energy transfer-based Z'-LYTE kinase assay (Invitrogen, USA) was used to evaluate the IC50 value of CHMFL-074 for inhibition of ABL and KIT kinase. […] After 1 hour incubation, the reaction was developed and terminated, and the fluorescence measured with an automated plate reader (SpectraMax I3, USA). A dose-response curve was fitted using Prism 5.0 (GraphPad Software Inc., San Diego, CA).

[5] = test system: BCR-DDR2-BaF3; test: Anti-proliferation, BaF3 isogenic cell lines; assay type: cell-based; details: Mus musculus, BaF3, 72 h
Description: (§1) Retroviral constructs for fusion kinases were made based on the pMSCVpuro (Clontech) backbone. For TEL fusion vectors, the first 1 kb of human TEL gene with an artificial myristoylation sequence ([…]) was cloned into pMSCVpuro retroviral vector, followed by a 3xFLAG tag sequence and a stop codon; for BCR fusion vectors, the first 2.8 kb coding region of p210 amplified from K562 cell line was used in fusion constructs. Then the kinase domain coding sequences were inserted in-frame between TEL/BCR and 3xFLAG sequences. All mutagenesis were performed using the QuikChange Site-Directed Mutagenesis Kit (Stratagene) following the manufacturer's instructions. Retrovirus was packaged in HEK293T cells by transfecting kinase-fusion MSCV vectors together with two helper plasmids, virus supernatants were harvested 48 hours after transfection and filtered before infection. Then BaF3 cells were infected with harvested virus supernatants using spinoculation protocol and stable cell lines were obtained by puromycin selection for 48 hours. A second selection in the absence of IL-3 was performed to obtain IL-3 independent cell lines that solely depend on the introduced kinase activities for cell proliferation.
(§2) A density of 1 × 10^4 to 2.5 × 10^4 cells/mL cells were mixed with various concentrations of compounds then 100 μL suspension was added to each well and incubated for 72 hours. Cell viability was determined using the CellTiter-Glo assay (Promega, USA) or CCK-8 assay (Beboy, China). Both assays were performed according to the manufacturer instructions. For CellTiter-Glo assay, luminescence was determined in a multi-label reader (Envision, PerkinElmer, USA). […] Data were normalized to control group (DMSO). GI50 were calculated using Prism 6.0 (GraphPad Software, San Diego, CA).

[6] = test system: P210-H369P-BaF3; test: Anti-proliferation, BaF3 isogenic cell lines; assay type: cell-based; details: Mus musculus, BaF3, 72 h
Description: as §1, §2

[7] = test system: P210-M351T-BaF3; test: Anti-proliferation, BaF3 isogenic cell lines; assay type: cell-based; details: Mus musculus, BaF3, 72 h
Description: as §1, §2

[8] = test system: P210-T315I-BaF3; test: Anti-proliferation, BaF3 isogenic cell lines; assay type: cell-based; details: Mus musculus; P210-T315I-BaF3, 72 hours
Description: as §1, §2

[9] = test system: P210-Y253F-BaF3; test: Anti-proliferation, BaF3 isogenic cell lines; assay type: cell-based; details: Mus musculus, BaF3, 72 h
Description: as §1, §2

[10] = test system: TEL-DDR1-BaF3; test: Anti-proliferation, BaF3 isogenic cell lines; assay type: cell-based; details: Mus musculus; TEL-DDR1-BaF3, 72 hours
Description: as §1, §2

[11] = test system: Tel-LCK-BaF3; test: Anti-proliferation, BaF3 isogenic cell lines; assay type: cell-based; details: Mus musculus; Tel-LCK-BaF3, 72 hours
Description: as §1, §2

[12] = test system: Tel-PDGFRα-BaF3; test: Anti-proliferation, BaF3 isogenic cell lines; assay type: cell-based; details: Mus musculus, BaF3, 72 h
Description: as §1, §2

[13] = test system: Tel-PDGFRβ-BaF3; test: Anti-proliferation, BaF3 isogenic cell lines; assay type: cell-based; details: Mus musculus, BaF3, 72 h
Description: as §1, §2

[14] = test system: Tel-RET-BaF3; test: Anti-proliferation, BaF3 isogenic cell lines; assay type: cell-based; details: Mus musculus, BaF3, 72 h
Description: as §1, §2

[15] = test system: CHO; test: Anti-proliferation, intact cancer cell lines; assay type: cell-based, Chinese hamster; details: Cricetulus griseus, 72 h
Description: The K562 (CML), KU812 (CML), MEG-01 (CML), MV4-11 (AML), MOLM14 (AML), U937 (AML), REC-1 (Human B-cell lymphoma cell), HL-60 (Human promyelocytic leukemia cells), MEC-1(CLL), CHL (Hamster lung cell), CHO (Hamster ovary cell) cell lines were obtained from American Type Culture Collection (Manassas, VA). All the cells were grown in a humidified incubator (Thermo, USA) at 37°C under 5% CO2. CHO cells were maintained in DMEM supplemented with 10% FBS, 1% penicillin/strepto-mycin. MV4-11 (AML) were grown in IMDM supplemented with 10% FBS, 1% penicillin/streptomycin. […] For suspension cells, cells were collected by spinning down at 800 rpm/min for 5 min before use.
as §2

[16] = test system: K562, KU812 and MEG-01 cells; test: Cell cycle analysis; assay type: cell-based; details: K562 (24 h), KU812 (12 h), MEG-01 (24 h)
Description: K562, KU812 and MEG01 cells were treated with serially diluted CHMFL-074 for 12 or 24 hours. The cells were fixed in 70% cold ethanol and incubated at −20°C overnight, then stained with PI/RNase staining buffer (BD Pharmingen). Flow cytometry was performed using a FACS Calibur (BD), and results were analyzed by ModFit software.

[17] = test system: K562 tumor xenografts; test: K562 xenograft tumor model; assay type: in vivo
Description: Five-week old female nu/nu mice were purchased from the Shanghai Experimental Center, Chinese Science Academy (Shanghai, China). All animals were housed in a specific pathogen-free facility and used according to the animal care regulations of Hefei Institutes of Physical Science Chinese Academy of Sciences. Prior to implantation, cells were harvested during exponential growth. Five million K562 cells in PBS were formulated as a 1:1 mixture with Matrigel (BD Biosciences) and injected into the subcutaneous space on the right flank of nu/nu mice. Daily oral administration was initiated when K562 tumors had reached a size of 200 to 300 mm^3. Animals were then randomized into treatment groups of 6 mice each for efficacy studies. CHMFL-074 was delivered daily in a HKI solution (0.5% Methocellulose/0.4% Tween 80 in dd H2O) by orally gavage. Body weight was measured daily and tumor growth was measured every day after CHMFL-074 treatment. Tumor volumes were calculated as follows: tumor volume (mm^3) = [(W^2 × L)/2] in which width (W) is defined as the smaller of the two measurements and length (L) is defined as the larger of the two measurements.

In the case of `Cc1ccc(NC(=O)c2ccc(CN3CCN(C)CC3)c(C(F)(F)F)c2)cc1OC1CCN(C(=O)c2cccnc2)CC1` [CHMFL-074], the remaining binding at 1 µM [1] is reported as 0.15%, the remaining binding at 1 µM [2] is reported as 0.3% and the remaining binding at 1 µM [3] is reported as 0.4%. For the same compound, the “fold less active against c-KIT than ABL1 kinase” value [4] was “about 12 fold”, the IC50 ([4]; ATP 300 μM, read-out: IC50 against c-KIT) was 289 nM and the GI50 [5] was 2670 nM. The GI50 [6] was 1040 nM, the GI50 [7] was 349 nM and the GI50 [8] was greater than 10000 nM. It also gave a GI50 [9] of 338 nM, a GI50 [10] of 3520 nM and a GI50 [11] of 2020 nM. For the same compound, the GI50 [12] was 95 nM, the GI50 [13] was 52 nM and the GI50 [14] was 630 nM. For the same compound, the GI50 [15] was greater than 10000 nM, the “concentration inducing G0/G1 phase cell cycle arrest” value [16] was no less than 0.3 µM and the “TGI (tumor growth inhibition)” value ([17]; 100 mg/kg/d oral, 12-day treatment) was 65%. For the same compound, the “toxicity in xenograft mice” value ([17]; 100 mg/kg/day oral) was “without exhibiting apparent toxicity; also recorded: no apparent toxicity was observed”.
